Tests used:
OCI-AML5 AML cells = test: colony formation in soft agar; format: cell-based
[1] = test system: MERTK phosphorylation in 697 ALL cells; test: pMERTK assay
Kasumi-1 AML cells = test: cell death by PoPro-1-iodide/propidium iodide flow cytometry; format: cell-based; details: Kasumi-1, 300 nM, 72 hours
[2] = test system: kinome (222 kinases quantified) in NOMO-1 human AML cells; test: MIB-MS kinome profiling; format: cell-based; details: NOMO-1 cells, 100 nM, one hour
NOMO-1 AML cells [3] = test: colony formation in soft agar; format: cell-based, human; details: NOMO-1, 300 nM
[4] = test system: AXL phosphorylation in A549 NSCLC cells; test: pAXL assay
NOMO-1 AML cells [5] = test: cell death by PoPro-1-iodide/propidium iodide flow cytometry; details: NOMO-1, 300 nM, 72 hours
COLO-699 NSCLC cells = test: colony formation in soft agar; format: cell-based; details: 14 days
A549 NSCLC cells = test: colony formation in soft agar; format: cell-based; details: A549, 300 nM, 14 days
[6] = pharmacokinetic study in mice; format: in vivo

In the case of `CC(C)C(=O)Nc1ccnc(C#Cc2ccc(Nc3ncc(-c4ccccn4)c(NC4CCC(O)CC4)n3)cc2)c1` (centres unmarked) [Compound 10], the “reduction in colony number” value (OCI-AML5 AML cells; OCI-AML5, 50 nM) is reported as 70%, the colony formation (OCI-AML5 AML cells; OCI-AML5, 300 nM) is reported as “complete abrogation of colony formation” and the “inhibition of pMERTK at higher concentrations” value ([1]; higher concentrations of 10) is reported as “Near complete inhibition”. For the same compound, the IC50 ([1]; read-out: IC50 (MERTK phosphorylation), 697 ALL cells, 1 hour, 95% confidence interval = 16–52 nM) was 28 nM, the “tumor cell death (% of cells)” value (Kasumi-1 AML cells) was 67% and the “number of kinases with lower enrichment on the beads compared to DMSO control” value ([2]; 222 kinases quantified) was 27 kinases. For the same compound, the “number of kinases significantly decreased” value ([2]; p < 0.05 and log2 ratio 10/control ≥ 2) was 8 kinases, the “reduction in colony number” value (NOMO-1 AML cells [3]) was 60–75% and the “inhibition of pAXL at higher concentrations” value ([4]; higher concentrations of 10) was “Near complete inhibition”. For the same compound, the IC50 ([4]; read-out: IC50 (AXL phosphorylation), A549 NSCLC cells, 1 hour, 95% confidence interval = 18–57 nM) was 32 nM, the “tumor cell death (% of cells)” value (NOMO-1 AML cells [5]) was 41% and the “reduction in colony number” value (COLO-699 NSCLC cells; COLO-699, 50 nM) was 70%. The colony formation (COLO-699 NSCLC cells; COLO-699, 300 nM) was “complete abrogation of colony formation”, the “reduction in colony number” value (A549 NSCLC cells) was 60–75% and the oral bioavailability ([6]; p.o.) was “weak oral bioavailability”. The Cmax ([6]; plasma, via i.p. route) was 435 ng/mL and the T1/2 ([6]; plasma, via i.p. route) was 4.97 h.

From PMC6894422 (Journal of the American Chemical Society, 2019)
